Measurements: publication PMC9161444, “In-Membrane Nanostructuring of Cationic Amphiphiles Affects Their Antimicrobial Efficacy and Cytotoxicity: A Comparison Study between a De Novo Antimicrobial Lipopeptide and Traditional Biocides” (Langmuir, 2022)
Values joined by “and” are separate entries in the source; they are usually repeats but may differ in a detail not shown here. Equal values may be shown once.

Tests used:
E. coli (ATCC 25922) = assay type: cell-based, Escherichia coli; conditions: for MIC/CAC, converted data, E. coli: MIC divided by the amphiphile's CAC; for MIC, E. coli: microdilution, serial half-dilution in PBS, Mueller Hinton broth, 37 °C, 24 h, 10^6 CFU/mL, by eye and OD600, ± SD, at least three replicates
Description: E. coli (ATCC 25922), S. aureus (ATCC 6538), and C. albicans SC5314 (ATCC MYA-2876) were purchased from the American Type Culture Collection (ATCC). The two bacterial strains, E. coli and S. aureus, were cultured in Mueller Hinton broth at 37 °C; while the yeast strain, C. albicans, was grown in RPMI 1640 medium at 30 °C. The microdilution method was employed to determine MICs of the amphiphiles against the microorganism strains listed above.[21] Solutions of lipopeptides and biocides were half-diluted serially in 96-well plates using PBS buffer containing 137 mM NaCl, 2.7 mM KCl, 8.1 mM Na2HPO4, and 1.9 mM KH2PO4 for E. coli and S. aureus and using RPMI 1640 for C. albicans. Overnight incubations of the strains, in each respective growth medium, were then inoculated into each well, giving final concentrations of 10^6 CFU/mL for E. coli and S. aureus and 10^5 CFU/mL for C. albicans. Culture media without microorganisms and amphiphiles were employed as positive controls, while fresh microorganism cultures without amphiphiles were used as negative controls. Each plate has both positive controls and negative controls. The plates were then incubated at an appropriate temperature (stated above) for 24 h for the bacterial strains and 48 h for the yeast strain. MICs of each sample were first determined by eye. A more quantitative analysis was carried out by measuring optical densities at 600 nm (OD600) of each well using a Sunrise absorbance microplate reader (Tecan Group Ltd.). Inhibitory ratios (IRs) of each sample at a given concentration against a specific strain, denoted as IRi, were calculated by IRi = (OD600,negative control – OD600,i)/(OD600,negative control – OD600,positive control) × 100%. All experiments were repeated at least three times with each group containing three replicates. To better analyze concentration–IR relationships, sigmoidal function fittings were employed to generate the best fitted dose response curve for each situation.

hRBCs = assay type: cell-based, human; conditions: hemolysis in PBS, 4% hRBC suspension mixed 1:1, 37 °C, 1 h, OD450, sigmoidal fit; ± SD, at least three replicates; read-out: EC50, hRBC (50% hemolysis)
Description: hRBCs were purchased from Rockland Immunochemical Inc. Hemolytic assays were performed in 96-well plates in an environment of PBS, as previously described.[13],[23] Amphiphiles were half diluted serially at first, resulting in 100 μL of solution in each well, and mixed subsequently with 100 μL of 4% hRBC suspension. Wells filled by PBS mixed with hRBC were employed as positive controls, while hRBCs with added 0.1% Triton X-100 were negative controls. After incubating at 37 °C for 1 h, the plates were centrifuged at 1000 times gravity for 5 min. The supernatants in each well, which contained the released hemoglobin, were transferred to another plate, and their optical density at 450 nm (OD450) was measured using an absorbance microplate reader. The percentage of hemolysis H for each sample at a certain concentration c was obtained by Hc = (OD450,c – OD450,positive control)/(OD450,negative control – OD450,positive control) × 100%. Figures for percentage leakage against concentration for each sample were plotted to determine the approximate range of 50% hemolysis, and the relevant concentration was the half maximal effective concentration (EC50) of the sample. Each experiment was repeated at least three times with each containing three replicates. The dose–response curves were again obtained by applying sigmoidal functional fits to obtain the EC50 values.

[1] = Neutron reflectivity of amphiphile binding to lipid monolayer; conditions: C14KKGGII 5 μM, C14TAB 2.5 μM, C12TAB 75 μM; for Γamphiphile, amount bound to DPPC monolayer / Γamphiphile, amount bound to DPPG monolayer: monolayer at 28 mN/m; for DPPG lipid removed from monolayer: NR
Description: Single-component lipid monolayer models in a Langmuir trough (12.5 cm × 15 cm, Nima Technology Ltd., UK) were employed to investigate interactions between amphiphiles and lipids. The trough was filled with 70 mL of PBS at room temperature to provide a physiological environment.[23]−[25] Saturated head-charged lipid DPPG and saturated zwitterionic DPPC monolayers, mimicking negatively charged microbial membranes and mammalian cell membranes, respectively, were formed, and their interactions with amphiphiles were controlled by injecting each amphiphile carefully from outside the trough barrier. The lipids were dissolved in a chloroform/methanol mixture (v/v 9:1) to form the spreading solution. The lipid monolayer was spread by dripping the lipid solution onto the surface of the PBS solution. Following stabilization of the surface pressure, three cycles of isothermal compression and expansion were carried out to make the monolayer homogeneous. The surface was controlled at an initial pressure of 28 mN/m to mimic the static pressure within cell membranes. The final concentration of the amphiphile after injection was 1/40 of its CAC value for C14TAB, while the final concentration was 3/40 CAC for C12TAB because of its relatively higher MICs. Surface pressure changes with time following the injection process were recorded and analyzed.
Monolayer models described above were characterized using neutron reflectivity (NR) to measure the component distribution normal to the air/liquid interface. Measurements were performed on the SURF reflectometer at the ISIS Neutron and Muon Source (STFC Rutherford Appleton Laboratory, Didcot, UK).[23]−[25] The instrument provided a momentum transfer (Q) range from 0.01 to 0.5 Å^–1 [Q = […], where λ is the wavelength of the incoming neutron beam and θ is the incident angle]. At the start of the NR measurements, the reflectivity of the air/D2O interface was used for instrument calibration. Monolayers were prepared on the beamline. For each interaction, different isotopic contrasts were examined by applying chain-deuterated or fully hydrogenated versions of lipids (d62-DPPG, DPPG, d62-DPPC, and DPPC, denoted as dDPPG, hDPPG, dDPPC, and hDPPC, respectively) on the surface of PBS in D2O or null reflecting water (NRW, H2O/D2O = 91.9%/8.1%, v/v) and injecting deuterated or protonated versions of amphiphiles (C14KKGGII, dC14KKGGII, C12TAB, dC12dTAB, and C14TAB, denoted as hC14KKGGII, dC14KKGGII, hC12TAB, dC12TAB, and hC14TAB, respectively) from underneath the lipid monolayer outside the trough barrier bar. Reflectivity profiles from lipid monolayers were scanned before amphiphile injection to ensure good monolayer reproducibility. Raw data were reduced using Mantid software, and the resultant NR profiles were fitted via the least squares method using a Motofit package on Igor 6, where a multilayer model was employed in the analysis. The thickness and scattering length density (SLD, Nb) of each layer, that is, lipid tail region, lipid head region, and lipopeptide region, were fitted to the data. The SLD of each layer is related to the volume fractions of its components and could be calculated using Nb = ∑iφiNbi, where i denotes each component, for example, the solvent, lipid tails, lipid heads, lipopeptides’ acyl chains, and lipopeptides’ amino acids, and φi represents the volume fraction of component i and is constrained by ∑iφi = 1 in each layer. More details about the division of the molecular head/tail groups and relevant fitting parameters can be found in Figure S3 and Tables S3 and S4.

SMILES | MIC/CAC, converted data, E. coli (E. coli (ATCC 25922)) | MIC, E. coli (E. coli (ATCC 25922)) [µM] | EC50 (hRBCs) [µM] | Γlipid, DPPC remaining on the surface after amphiphile binding ([1]; NR best fit, DPPC monolayer at 28 mN/m, 3.08 ± 0.08 before) [μmol/m^2] | Γlipid, DPPG remaining on the surface after amphiphile binding ([1]; NR best fit, DPPG monolayer at 28 mN/m, 3.35 ± 0.01 before) [μmol/m^2] | Γamphiphile, amount bound to DPPC monolayer ([1]; NR best fit) [μmol/m^2] | Γamphiphile, amount bound to DPPG monolayer ([1]; NR best fit) [μmol/m^2] | DPPG lipid removed from monolayer [1] [%]
CCCCCCCCCCCC[N+](C)(C)C.[Br-] [C12TAB, dodecyltrimethylammonium bromide] | 0.20 ± 0.04 | 200 ± 40 | 610 ± 30 | 2.55 ± 0.01 | 2.70 ± 0.20 | 0.98 ± 0.02 | 1.51 ± 0.01 | 22
CCCCCCCCCCCCCC[N+](C)(C)C.[Br-] [C14TAB, tetradecyltrimethylammonium bromide] | 1 and 1.00 ± 0.30 | 100 ± 30 | 98 ± 8 |  |  | 1.10 ± 0.01 | 1.43 ± 0.02 | 19
